Data: ChEMBL document CHEMBL1155532 (Bioorg Med Chem Lett, 2010)

Experiments:
[1] = biological target: Fatty acid-binding protein, heart (Homo sapiens, UniProt P05413); test: Displacement of 8-anilino-1-naphthalene-sulfonic acid from human His-FABP3 expressed in Escherichia coli BL21 (DE3) cells after 3 mins relative to linoleic acid
BL21-DE3 [2] = test: Displacement of 8-anilino-1-naphthalene-sulfonic acid from human FABP4 F16A mutant expressed in Escherichia coli BL21 (DE3) cells at 700 uM after 3 mins
[3] = biological target: T1, Fatty acid-binding protein, adipocyte (Homo sapiens, UniProt P15090); test: Displacement of 8-anilino-1-naphthalene-sulfonic acid from human His-FABP4 expressed in Escherichia coli BL21 (DE3) cells after 3 mins
Target sequence in this assay (P15090 whole entry): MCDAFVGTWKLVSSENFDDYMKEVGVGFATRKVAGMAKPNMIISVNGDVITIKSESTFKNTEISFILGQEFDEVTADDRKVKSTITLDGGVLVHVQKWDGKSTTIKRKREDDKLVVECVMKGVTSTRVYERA

[4] = biological target: T1, Fatty acid-binding protein, adipocyte; test: Displacement of 8-anilino-1-naphthalene-sulfonic acid from human His-FABP4 expressed in Escherichia coli BL21 (DE3) cells after 3 mins relative to linoleic acid
Target sequence in this assay (P15090 whole entry): as above

Homo sapiens [5] = organism: Homo sapiens; test: Selectivity ratio of IC50 for human FABP4 F106A mutant to IC50 for human wild type FABP4
BL21-DE3 [6] = test: Displacement of 8-anilino-1-naphthalene-sulfonic acid from human FABP4 F16A mutant expressed in Escherichia coli BL21 (DE3) cells at 500 uM after 3 mins
[7] = biological target: T1, Fatty acid-binding protein, adipocyte; test: Displacement of 8-anilino-1-naphthalene-sulfonic acid from human His-FABP4 expressed in Escherichia coli BL21 (DE3) cells at 100 uM after 3 mins
Target sequence in this assay (P15090 2-132 limits assumed): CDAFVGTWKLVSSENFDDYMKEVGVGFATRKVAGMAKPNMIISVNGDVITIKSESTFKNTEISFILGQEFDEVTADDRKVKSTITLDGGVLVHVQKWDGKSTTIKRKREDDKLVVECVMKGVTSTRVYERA

Homo sapiens [8] = organism: Homo sapiens; test: Selectivity index, ratio of IC50 for His-human FABP3 to IC50 for human His-FABP4
Homo sapiens [9] = organism: Homo sapiens; test: Selectivity ratio of IC50 for human FABP4 F126A mutant to IC50 for human wild type FABP4
[10] = Displacement of 8-anilino-1-naphthalene-sulfonic acid from human FABP4 F16A mutant expressed in Escherichia coli BL21 (DE3) cells after 3 mins

Chain of Fatty acid-binding protein, heart (P05413 whole entry): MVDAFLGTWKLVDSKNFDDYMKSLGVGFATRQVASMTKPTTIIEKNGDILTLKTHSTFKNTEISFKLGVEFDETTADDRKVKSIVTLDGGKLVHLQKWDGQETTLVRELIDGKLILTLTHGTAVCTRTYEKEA

O=C(O)CSCC(=O)Nc1cc(Cl)cc(Cl)c1
IC50 [1]: > 144 µM
inhibition (BL21-DE3 [2]): 57%
IC50 [3]: 13.5 µM
IC50 [4]: 1 µM
Ratio IC50 (Homo sapiens [5]): 1.3
inhibition (BL21-DE3 [6]): 50.7%
inhibition [7]: 84.9%
Ratio IC50 (Homo sapiens [8]): > 144
Ratio IC50 (Homo sapiens [9]): 11.1

COC(=O)c1cc(OC)c(OC)cc1NC(=O)CSCC(=O)O
IC50 [3]: > 100 µM
inhibition [7]: 46.9%

O=C(O)CSCC(=O)Nc1ccc(F)c(Cl)c1
IC50 [1]: > 432 µM
IC50 [3]: 59.5 µM
IC50 [4]: 4.4 µM
inhibition [7]: 56.2%
Ratio IC50 (Homo sapiens [8]): > 99

c1cc(CSc2nc3ccccc3[nH]2)nc(CSc2nc3ccccc3[nH]2)c1
IC50 [3]: > 100 µM
inhibition [7]: 47.7%

O=C(O)CSCC(=O)NCc1ccccc1N1CCCCC1
IC50 [1]: 6.3 µM
IC50 [3]: 56.3 µM
IC50 [4]: 4.1 µM
inhibition [7]: 58.7%
Ratio IC50 (Homo sapiens [8]): 1.5

O=C(O)CSCC(=O)NCc1c(Cl)cccc1Oc1ccccc1
IC50 [1]: 1.9 µM
IC50 [3]: 42.2 µM
IC50 [4]: 3.1 µM
IC50 [10]: 76.5 µM
Ratio IC50 (Homo sapiens [5]): 3.4
inhibition [7]: 62.5%
Ratio IC50 (Homo sapiens [8]): 0.6
Ratio IC50 (Homo sapiens [9]): 6.6

CCCCC/C=C\C/C=C\CCCCCCCC(=O)O
inhibition (BL21-DE3 [2]): 39%
inhibition (BL21-DE3 [6]): 36.9%
inhibition [7]: 81.4%

O=[N+]([O-])c1ccc(S(=O)(=O)c2ccccc2)cc1OS(=O)(=O)c1cc(Cl)cc(Cl)c1
IC50 [3]: > 100 µM
inhibition [7]: 40.7%

Cc1ccc(SC(CC(=O)c2ccc(C)cc2)C(=O)O)cc1 (stereo not drawn)
IC50 [3]: > 100 µM
inhibition [7]: 44.4%

O=c1[nH]nc(SCCS(=O)(=O)c2ccc(Cl)cc2Cl)n1-c1ccc2c(c1)OCCO2
IC50 [3]: > 100 µM
inhibition [7]: 37.1%

COc1ccc(-c2c(C(F)(F)F)nn(C)c2NC(=O)CSCC(=O)O)cc1
IC50 [3]: > 100 µM
inhibition [7]: 20.1%

CCCCCCCC/C=C\CCCCCCCC(=O)O
inhibition [7]: 66.8%
